Test results as given in patent US8648201B2, “Aminopyridine derivatives for treating tumors and inflammatory diseases” (MERCK PATENT GmbH, priority 2009, dated 2014).

Molecular target: T1, IRAK-4 (Homo sapiens, UniProt Q9NWZ3)
T1 construct: His6 (N); Dr.Jaekel
T1 sequence (Q9NWZ3 1-460): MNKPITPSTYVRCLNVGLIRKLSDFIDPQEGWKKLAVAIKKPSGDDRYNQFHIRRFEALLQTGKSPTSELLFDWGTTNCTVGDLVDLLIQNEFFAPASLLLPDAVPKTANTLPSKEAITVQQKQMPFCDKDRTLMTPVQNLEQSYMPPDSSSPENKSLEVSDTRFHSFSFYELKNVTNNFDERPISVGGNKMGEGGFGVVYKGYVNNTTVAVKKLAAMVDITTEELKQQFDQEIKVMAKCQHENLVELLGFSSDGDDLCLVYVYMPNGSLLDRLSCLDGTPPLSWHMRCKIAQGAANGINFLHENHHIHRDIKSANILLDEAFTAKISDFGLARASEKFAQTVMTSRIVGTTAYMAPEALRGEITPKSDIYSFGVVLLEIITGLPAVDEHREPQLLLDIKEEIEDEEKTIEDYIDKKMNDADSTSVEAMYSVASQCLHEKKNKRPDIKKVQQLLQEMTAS
Assay: IC50 IRAK-4 (cell)
Assay type: cell-based
Conditions: not given

| Structure (SMILES) | IC50 [nM] |
| --- | --- |
| COc1ccc2nc(-c3cc(-c4cnn(C5CCNCC5)c4)cnc3N)[nH]c2c1 [Compound A92, 3-(6-Methoxy-1H-benzimidazol-2-yl)-5-(1-piperidin-4-yl-1H-pyrazol-4-yl)pyridin-2-ylamine] | 100 to 10000 |

Molecular target: T1, IRAK-4
Assay: Test for the inhibition of IRAK4 (flashplate, 33P-ATP)
Assay type: biochemical
Conditions: enzyme
Outline: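 His6-IRAK4 (7.3 nM) with biotinylated STK substrate 1 peptide (300 nM) and 10 μM ATP spiked with ^33P-ATP, incubated 180 min at 22° C. Incorporated radioactivity counted; blank from 1 μM staurosporine subtracted, activity expressed as % of no-compound control, IC50 by statistical fit.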

| Structure (SMILES) | IC50 [nM] |
| --- | --- |
| COc1ccc2nc(-c3cc(-c4cnn(C5CCNCC5)c4)cnc3N)[nH]c2c1 [Compound A92, 3-(6-Methoxy-1H-benzimidazol-2-yl)-5-(1-piperidin-4-yl-1H-pyrazol-4-yl)pyridin-2-ylamine] | 1 to 100 |
| COc1ccc2nc(-c3cc(-c4ccc(C(=O)NC5CCN(C)CC5)s4)cnc3N)[nH]c2c1 [Compound A133, N-(1-Methylpiperidin-4-yl)-5-[6-amino-5-(6-methoxy-1H-benzimidazol-2-yl)pyridin-3-yl]thiophene-2-carboxamide] | 1 to 100 |
| Cn1cc(-c2cnc(N)c(-c3nc4cccc(CO)c4[nH]3)c2)cn1 [Compound A52] | 100 to 10000 |
| COc1ccc2nc(-c3cc(-c4ccsc4)cnc3N)[nH]c2c1 [Compound A144, 3-(6-methoxy-1H-benzimidazol-2-yl)-5-thiophen-3-ylpyridin-2-ylamine] | 100 to 10000 |
| COc1ccc2nc(-c3cc(-c4cnn(C)c4)cnc3N)[nH]c2c1 [Compound A43] | 100 to 10000 |
| CC1CC(=O)NN=C1c1ccc2nc(-c3cc(-c4cnn(C)c4)cnc3N)[nH]c2c1 (racemic) [Compound A1, 6-{2-[2-amino-5-(1-methyl-1H-pyrazol-4-yl)pyridin-3-yl]-3H-benzimidazol-5-yl}-5-methyl-4,5-dihydro-2H-pyridazin-3-one] | > 10000 |
| Cn1cc(-c2cnc(N)c(-c3nc4ccc(C(=O)NCCc5ccc(F)c(F)c5)cc4[nH]3)c2)cn1 [Compound A128, N-[2-(3,4-difluorophenyl)ethyl]-2-[2-amino-5-(1-methyl-1H-pyrazol-4-yl)pyridin-3-yl]-3H-benzimidazole-5-carboxamide] | 100 to 10000 |
